Results reported in article PMC10820826, “Interrogation and validation of the interactome of neuronal Munc18-interacting Mint proteins with AlphaFold2” (The Journal of Biological Chemistry, 2023).
Ends that are not written are not given here.

Tests used:
[1] = target: T1, Munc18-1 (Rattus norvegicus, UniProt P61765); assay: ITC of Mint peptides and Sx1a binding to Munc18-1
T1 construct: His (C); made in house; host or cells: Escherichia coli Rosetta BL21 (DE3)
Description: For ITC, all peptides were weighed and initially dissolved in the working buffer to make a stock concentration of 2 mM. […] The binding parameters, equilibrium constant Ka (1/Kd), stoichiometry (n), and the enthalpy (ΔH) were determined by processing the ITC data using ORIGIN 7.0 software. The equation, ΔG = ΔH – TΔS, was used to calculate the Gibbs free energy (ΔG), and all the experiments were performed in triplicate or duplicate to calculate the SEM for thermodynamic parameters.

[2] = target: Munc18-1^Δ317–333 + Mint1; assay: ITC of Sx1a binding to Munc18-1 hinge-loop deletion mutant in the presence of Mint1 (261–282) peptide; set-up: species or system rat; conditions: Table 2; syringe Sx1a + Mint1, cell Munc18-1^Δ317–333 + Mint1; ITC 25 °C
Description: As Mint1 binds to Munc18-1 domain 3b, we hypothesized that the perturbed Mint1 interaction on deletion of the distal domain 3a hinge-loop might be due to altered structural dynamics in the combined domain3a/3b module. […] This is in line with the ability to cocrystallize the three proteins when excess Mint1 peptide is present ([47]). […] This has potential implications for a role of Mint proteins in Munc18-1-mediated SNARE assembly, which is a tightly regulated and highly dynamic process.
For ITC, all peptides were weighed and initially dissolved in the working buffer to make a stock concentration of 2 mM. […] GST-Mint1 and all the other proteins used in the experiments were buffer exchanged into 50 mM Tris (pH 8.0) and 200 mM NaCl by gel filtration prior to ITC. […] Mint1 PTB domain binding to the APP and TJAP1 peptides was performed in 50 mM Hepes, 200 mM NaCl, 0.5 mM TCEP, and 5% glycerol at 25 °C with 1 mM peptides titrated into 50 μM Mint1 PTB domain. The binding parameters, equilibrium constant Ka (1/Kd), stoichiometry (n), and the enthalpy (ΔH) were determined by processing the ITC data using ORIGIN 7.0 software. The equation, ΔG = ΔH – TΔS, was used to calculate the Gibbs free energy (ΔG), and all the experiments were performed in triplicate or duplicate to calculate the SEM for thermodynamic parameters.

T1 sequence (P61765 whole entry): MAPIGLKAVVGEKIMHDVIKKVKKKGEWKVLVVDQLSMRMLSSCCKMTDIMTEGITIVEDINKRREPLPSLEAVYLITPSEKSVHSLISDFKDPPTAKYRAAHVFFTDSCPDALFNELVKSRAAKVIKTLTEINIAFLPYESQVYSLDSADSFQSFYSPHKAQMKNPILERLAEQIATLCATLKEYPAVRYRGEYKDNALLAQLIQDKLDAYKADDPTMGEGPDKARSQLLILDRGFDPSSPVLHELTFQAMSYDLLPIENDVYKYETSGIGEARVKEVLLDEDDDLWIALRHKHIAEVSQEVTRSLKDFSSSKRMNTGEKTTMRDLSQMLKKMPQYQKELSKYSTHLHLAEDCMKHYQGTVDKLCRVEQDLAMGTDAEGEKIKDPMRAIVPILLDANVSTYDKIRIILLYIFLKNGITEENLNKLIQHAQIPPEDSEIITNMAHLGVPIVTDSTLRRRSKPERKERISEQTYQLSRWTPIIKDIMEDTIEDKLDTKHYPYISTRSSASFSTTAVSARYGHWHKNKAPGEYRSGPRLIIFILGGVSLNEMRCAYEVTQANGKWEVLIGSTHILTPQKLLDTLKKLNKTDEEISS

Substance | Kd [1] [µM] | Kd [2] [µM]
LEDQEEDIDQIVAEIKMELEMEEI [Mint2_2] | 200 | 
MDSYEQEEDIDQIVAAVKQSMS [Mint1_14] | 216 | 
Sx1a: recombinant rat Syntaxin1a (Sx1_1–261-His) expressed in E. coli |  | 0.09
